Experimental data published in patent US9545105B2, “1-(heterocyclic carbonyl) piperidines” (BAYER INTELLECTUAL PROPERTY GMBH, priority 2010, dated 2017).
Values joined by “and” are separate entries in the source; they are usually repeats but may differ in a detail not shown here. Equal values may be shown once.

Test system: Sphaerotheca fuliginea
Test: In vivo preventive test on Sphaerotheca fuliginea (cucumber)
Settings: 500 ppm of active ingredient, evaluated 7 days after inoculation
Experimental: Solvent: 49 parts by weight of N,N-dimethylformamide Emulsifier: 1 part by weight of Alkylarylpolyglycolether To produce a suitable preparation of active compound, 1 part by weight of active compound is mixed with the stated amounts of solvent and emulsifier, and the concentrate is diluted with water to the desired concentration. To test for preventive activity, young plants are sprayed with the preparation of active compound at the stated rate of application. One day after this treatment, the plants are inoculated with an aqueous spore suspension of Sphaerotheca fuliginea. Then the plants are placed in a greenhouse at approximately 23° C. and a relative atmospheric humidity of approximately 70%. The test is evaluated 7 days after the inoculation. 0% means an efficacy which corresponds to that of the untreated control, while an efficacy of 100% means that no disease is observed.

Row | SMILES | Efficacy [%]
1 | Cn1nc(C(F)F)c(C(=S)N2CCCCC2c2ccccc2Br)c1F (stereo not shown) [Example 92] | 100
2 | Cn1nc(C(F)F)c(C(=O)N2CCCCC2c2cccc(Cl)c2)c1F (stereo not shown) [Example 48] | 100
3 | Cn1nc(C(F)F)c(C(=O)N2CCCCC2Cc2ccc(F)cc2)c1F (stereo not shown) [Example 156] | 75
4 | CC(c1ccccc1)C1CCCCN1C(=O)c1c(C(F)F)nn(C)c1F (stereo not shown) [Example 138] | 98
5 | CCc1nn(C)c(F)c1C(=O)N1CCCCC1c1cc(Cl)ccc1Cl (stereo not shown) [Example 82] | 79
6 | Cn1nc(C(F)F)c(C(=O)N2CCCCC2c2ccc3ccccc3c2)c1F (stereo not shown) [Example 122] | 94
7 | Cc1ccc(C2CCCCN2C(=O)c2c(C(F)F)nn(C)c2F)cc1C (stereo not shown) [Example 9] | 93
8 | Cn1nc(C(F)F)c(C(=O)N2CCCCC2c2ccccc2Br)c1F (stereo not shown) [Example 91] | 95
9 | Cn1nc(C(F)F)c(C(=S)N2CCCCC2c2ccc(Cl)cc2)c1F (stereo not shown) [Example 57] | 70
10 | Cn1nc(C(F)F)c(C(=O)N2CCCCC2c2ccccc2Cl)c1F (stereo not shown) [Example 41] | 100
11 | Cn1nc(C(F)F)c(C(=O)N2CCCCC2c2ccc(Cl)cc2)c1F (stereo not shown) [Example 56] | 79
12 | Cn1nc(C(F)F)c(C(=O)N2CCCCC2c2cccc(Br)c2)c1F (stereo not shown) [Example 97] | 96
13 | Cn1nc(C(F)F)c(C(=S)N2CCCCC2c2ccccc2Cl)c1F (stereo not shown) [Example 42] | 100
14 | Cn1nc(C(F)F)c(C(=S)N2CCCCC2c2ccc3ccccc3c2)c1F (stereo not shown) [Example 123] | 88
15 | CC(c1ccccc1)C1CCCCN1C(=S)c1c(C(F)F)nn(C)c1F (stereo not shown) [Example 139] | 95
16 | Cn1nc(C(F)F)c(C(=S)N2CCCCC2c2cccc(Br)c2)c1F (stereo not shown) [Example 98] | 100
17 | Cn1nc(C(F)F)c(C(=O)N2CCCCC2CCOc2ccc(C(F)(F)F)cn2)c1F (stereo not shown) [Example 196] | 70
18 | CC(c1ccccc1Cl)C1CCCCN1C(=O)c1c(C(F)F)nn(C)c1F (stereo not shown) [Example 163] | 98
19 | Cc1ccccc1C1CCCCN1C(=O)c1c(C(F)F)nn(C)c1F (stereo not shown) [Example 6] | 95
20 | Cc1ccccc1C1CCCCN1C(=S)c1c(C(F)F)nn(C)c1F (stereo not shown) [Example 7] | 100
21 | CCc1noc(C)c1C(=O)N1CCCCC1c1ccc(Br)s1 (stereo not shown) [Example 126] | 95

Test system: Pyrenophora teres
Test: In vivo preventive test on Pyrenophora teres (barley)
Settings: 500 ppm of active ingredient, evaluated 7-9 days after inoculation
Experimental: Solvent: 49 parts by weight of N,N-dimethylformamide Emulsifier: 1 part by weight of alkylaryl polyglycol ether To produce a suitable preparation of active compound, 1 part by weight of active compound is mixed with the stated amounts of solvent and emulsifier, and the concentrate is diluted with water to the desired concentration. To test for preventive activity, young plants are sprayed with the preparation of active compound at the stated rate of application. One day after this treatment, the plants are inoculated with an aqueous spore suspension of Pyrenophora teres. The plants remain for 48 hours in an incubation cabinet at 22° C. and a relative atmospheric humidity of 100%. Then the plants are placed in a greenhouse at a temperature of approximately 20° C. and a relative atmospheric humidity of approximately 80%. The test is evaluated 7-9 days after the inoculation. 0% means an efficacy which corresponds to that of the untreated control while an efficacy of 100% means that no disease is observed.

Row | SMILES | Efficacy [%]
22 | Cn1nc(C(F)F)c(C(=S)N2CCCCC2c2ccccc2Br)c1F (stereo not shown) [Example 92] | 100
23 | Cn1nc(C(F)F)c(C(=O)N2CCCCC2c2cccc(Cl)c2)c1F (stereo not shown) [Example 48] | 100
24 | Cn1nc(C(F)F)c(C(=O)N2CCCCC2Cc2ccc(F)cc2)c1F (stereo not shown) [Example 156] | 100
25 | CC(c1ccccc1)C1CCCCN1C(=O)c1c(C(F)F)nn(C)c1F (stereo not shown) [Example 138] | 100
26 | CCc1nn(C)c(F)c1C(=O)N1CCCCC1c1cc(Cl)ccc1Cl (stereo not shown) [Example 82] | 90
27 | Cn1nc(C(F)F)c(C(=O)N2CCCCC2c2ccc3ccccc3c2)c1F (stereo not shown) [Example 122] | 100
28 | Cc1ccc(C2CCCCN2C(=O)c2c(C(F)F)nn(C)c2F)cc1C (stereo not shown) [Example 9] | 100
29 | Cn1nc(C(F)F)c(C(=O)N2CCCCC2c2ccccc2Br)c1F (stereo not shown) [Example 91] | 100
30 | Cn1nc(C(F)F)c(C(=S)N2CCCCC2c2ccc(Cl)cc2)c1F (stereo not shown) [Example 57] | 100
31 | Cn1nc(C(F)F)c(C(=O)N2CCCCC2c2ccccc2Cl)c1F (stereo not shown) [Example 41] | 100
32 | Cn1nc(C(F)F)c(C(=O)N2CCCCC2c2ccc(Cl)cc2)c1F (stereo not shown) [Example 56] | 100
33 | Cn1nc(C(F)F)c(C(=O)N2CCCCC2c2cccc(Br)c2)c1F (stereo not shown) [Example 97] | 100
34 | Cn1nc(C(F)F)c(C(=S)N2CCCCC2c2ccccc2Cl)c1F (stereo not shown) [Example 42] | 100
35 | Cn1nc(C(F)F)c(C(=S)N2CCCCC2c2ccc3ccccc3c2)c1F (stereo not shown) [Example 123] | 100
36 | CC(c1ccccc1)C1CCCCN1C(=S)c1c(C(F)F)nn(C)c1F (stereo not shown) [Example 139] | 100
37 | Cn1nc(C(F)F)c(C(=S)N2CCCCC2c2cccc(Br)c2)c1F (stereo not shown) [Example 98] | 100
38 | Cn1nc(C(F)F)c(C(=O)N2CCCCC2CCOc2ccc(C(F)(F)F)cn2)c1F (stereo not shown) [Example 196] | 100
39 | CC(c1ccccc1Cl)C1CCCCN1C(=O)c1c(C(F)F)nn(C)c1F (stereo not shown) [Example 163] | 100
40 | Cc1ccccc1C1CCCCN1C(=O)c1c(C(F)F)nn(C)c1F (stereo not shown) [Example 6] | 100
41 | Cc1ccccc1C1CCCCN1C(=S)c1c(C(F)F)nn(C)c1F (stereo not shown) [Example 7] | 100

Test system: not listed separately
Test: log P by HPLC on reversed-phase column (C 18), EEC Directive 79/831 Annex V.A8
Format: physicochemical
Settings: HPLC on reversed-phase column (C 18); 40° C.; 0.1% aqueous formic acid and acetonitrile; linear gradient 10% to 90% acetonitrile
Experimental: In table 1, the log P values were determined in accordance with EEC Directive 79/831 Annex V.A8 by HPLC (High Performance Liquid Chromatography) on a reversed-phase column (C 18), using the method described below: Temperature: 40° C.; Mobile phases: 0.1% aqueous formic acid and acetonitrile; linear gradient from 10% acetonitrile to 90% acetonitrile. Calibration was carried out using unbranched alkan-2-ones (comprising 3 to 16 carbon atoms) with known log P values (determination of the log P values by the retention times using linear interpolation between two successive alkanones). lambda-max-values were determined using UV-spectra from 200 nm to 400 nm and the peak values of the chromatographic signals.

Row | logP | SMILES
42 | 3.92 | Cn1nc(C(F)F)c(C(=S)N2CCCCC2c2ccccc2Br)c1F (stereo not shown) [Example 92]
43 | 3.39 | Cn1nc(C(F)F)c(C(=O)N2CCCCC2c2cccc(Cl)c2)c1F (stereo not shown) [Example 48]
44 | 3.11 | Cn1nc(C(F)F)c(C(=O)N2CCCCC2Cc2ccc(F)cc2)c1F (stereo not shown) [Example 156]
45 | 3.39 | CC(c1ccccc1)C1CCCCN1C(=O)c1c(C(F)F)nn(C)c1F (stereo not shown) [Example 138]
46 | 3.67 | CCc1nn(C)c(F)c1C(=O)N1CCCCC1c1cc(Cl)ccc1Cl (stereo not shown) [Example 82]
47 | 3.69 | Cn1nc(C(F)F)c(C(=O)N2CCCCC2c2ccc3ccccc3c2)c1F (stereo not shown) [Example 122]
48 | 3.64 | Cc1ccc(C2CCCCN2C(=O)c2c(C(F)F)nn(C)c2F)cc1C (stereo not shown) [Example 9]
49 | 3.39 | Cn1nc(C(F)F)c(C(=O)N2CCCCC2c2ccccc2Br)c1F (stereo not shown) [Example 91]
50 | 4.16 | Cn1nc(C(F)F)c(C(=S)N2CCCCC2c2ccc(Cl)cc2)c1F (stereo not shown) [Example 57]
51 | 3.31 | Cn1nc(C(F)F)c(C(=O)N2CCCCC2c2ccccc2Cl)c1F (stereo not shown) [Example 41]
52 | 3.46 | Cn1nc(C(F)F)c(C(=O)N2CCCCC2c2ccc(Cl)cc2)c1F (stereo not shown) [Example 56]
53 | 3.51 | Cn1nc(C(F)F)c(C(=O)N2CCCCC2c2cccc(Br)c2)c1F (stereo not shown) [Example 97]
54 | 4.00 | Cn1nc(C(F)F)c(C(=S)N2CCCCC2c2ccccc2Cl)c1F (stereo not shown) [Example 42]
55 | 4.36 | Cn1nc(C(F)F)c(C(=S)N2CCCCC2c2ccc3ccccc3c2)c1F (stereo not shown) [Example 123]
56 | 4.14 | CC(c1ccccc1)C1CCCCN1C(=S)c1c(C(F)F)nn(C)c1F (stereo not shown) [Example 139]
57 | 4.16 | Cn1nc(C(F)F)c(C(=S)N2CCCCC2c2cccc(Br)c2)c1F (stereo not shown) [Example 98]
58 | 3.57 | Cn1nc(C(F)F)c(C(=O)N2CCCCC2CCOc2ccc(C(F)(F)F)cn2)c1F (stereo not shown) [Example 196]
59 | 3.72 | CC(c1ccccc1Cl)C1CCCCN1C(=O)c1c(C(F)F)nn(C)c1F (stereo not shown) [Example 163]
60 | 3.21 | Cc1ccccc1C1CCCCN1C(=O)c1c(C(F)F)nn(C)c1F (stereo not shown) [Example 6]
61 | 3.81 | Cc1ccccc1C1CCCCN1C(=S)c1c(C(F)F)nn(C)c1F (stereo not shown) [Example 7]
62 | 3.67 | CCc1noc(C)c1C(=O)N1CCCCC1c1ccc(Br)s1 (stereo not shown) [Example 126]

Test system: Alternaria solani
Test: In vivo preventive test on Alternaria solani (tomato)
Settings: 500 ppm of active ingredient, evaluated 7 days after inoculation
Experimental: Solvent: 49 parts by weight of N,N-dimethylformamide Emulsifier: 1 part by weight of Alkylarylpolyglycolether To produce a suitable preparation of active compound, 1 part by weight of active compound is mixed with the stated amounts of solvent and emulsifier, and the concentrate is diluted with water to the desired concentration. To test for preventive activity, young plants are sprayed with the preparation of active compound at the stated rate of application. One day after this treatment, the plants are inoculated with an aqueous spore suspension of Alternaria solani. The plants remain for one day in an incubation cabinet at approximately 22° C. and a relative atmospheric humidity of 100%. Then the plants are placed in an incubation cabinet at approximately 20° C. and a relative atmospheric humidity of 96%. The test is evaluated 7 days after the inoculation. 0% means an efficacy which corresponds to that of the untreated control while an efficacy of 100% means that no disease is observed.

Row | SMILES | Efficacy
63 | Cn1nc(C(F)F)c(C(=S)N2CCCCC2c2ccccc2Br)c1F (stereo not shown) [Example 92] | 95% and 100%
64 | Cn1nc(C(F)F)c(C(=O)N2CCCCC2c2cccc(Cl)c2)c1F (stereo not shown) [Example 48] | 100%
65 | Cn1nc(C(F)F)c(C(=O)N2CCCCC2Cc2ccc(F)cc2)c1F (stereo not shown) [Example 156] | 100%
66 | CC(c1ccccc1)C1CCCCN1C(=O)c1c(C(F)F)nn(C)c1F (stereo not shown) [Example 138] | 100%
67 | CCc1nn(C)c(F)c1C(=O)N1CCCCC1c1cc(Cl)ccc1Cl (stereo not shown) [Example 82] | 95%
68 | Cn1nc(C(F)F)c(C(=O)N2CCCCC2c2ccc3ccccc3c2)c1F (stereo not shown) [Example 122] | 100%
69 | Cc1ccc(C2CCCCN2C(=O)c2c(C(F)F)nn(C)c2F)cc1C (stereo not shown) [Example 9] | 95%
70 | Cn1nc(C(F)F)c(C(=O)N2CCCCC2c2ccccc2Br)c1F (stereo not shown) [Example 91] | 100%
71 | Cn1nc(C(F)F)c(C(=S)N2CCCCC2c2ccc(Cl)cc2)c1F (stereo not shown) [Example 57] | 100%
72 | Cn1nc(C(F)F)c(C(=O)N2CCCCC2c2ccccc2Cl)c1F (stereo not shown) [Example 41] | 100%
73 | Cn1nc(C(F)F)c(C(=O)N2CCCCC2c2ccc(Cl)cc2)c1F (stereo not shown) [Example 56] | 100%
74 | Cn1nc(C(F)F)c(C(=O)N2CCCCC2c2cccc(Br)c2)c1F (stereo not shown) [Example 97] | 100%
75 | Cn1nc(C(F)F)c(C(=S)N2CCCCC2c2ccccc2Cl)c1F (stereo not shown) [Example 42] | 100%
76 | Cn1nc(C(F)F)c(C(=S)N2CCCCC2c2ccc3ccccc3c2)c1F (stereo not shown) [Example 123] | 90%
77 | CC(c1ccccc1)C1CCCCN1C(=S)c1c(C(F)F)nn(C)c1F (stereo not shown) [Example 139] | 95%
78 | Cn1nc(C(F)F)c(C(=S)N2CCCCC2c2cccc(Br)c2)c1F (stereo not shown) [Example 98] | 100%
79 | Cn1nc(C(F)F)c(C(=O)N2CCCCC2CCOc2ccc(C(F)(F)F)cn2)c1F (stereo not shown) [Example 196] | 100%
80 | CC(c1ccccc1Cl)C1CCCCN1C(=O)c1c(C(F)F)nn(C)c1F (stereo not shown) [Example 163] | 100%
81 | Cc1ccccc1C1CCCCN1C(=O)c1c(C(F)F)nn(C)c1F (stereo not shown) [Example 6] | 100%
82 | Cc1ccccc1C1CCCCN1C(=S)c1c(C(F)F)nn(C)c1F (stereo not shown) [Example 7] | 95%
